The target of this experiment is T1, cloned human Kv1.3 potassium channel (Homo sapiens, UniProt P22001).
T1 construct: expressed in transfected cells
In words: PatchXpress inhibition of cloned human Kv1.3 in CHO cells (Example 6). In kind it is cell-based. Particulars: hKv1.3, up to 3000 μM. From the text: The objective of this study was to examine the in vitro effects and determine the […] of 3,4-DAP phosphate and the metabolite N-(4-aminopyridin-3-yl) acetamide HCl on the following ion channels: cloned human Kv1.1 potassium channel (encoded by the human KCNA1 gene, expressed in HEK293 cells), cloned human Kv1.2 potassium channel (encoded by the human KCNA2 gene, expressed in HEK293 cells), cloned human Kv1.3 potassium channel (encoded by the human KCNA3 gene, expressed in CHO cells), cloned human Kv1.4 potassium channel (encoded by the human KCNA4 gene, expressed in HEK293 cells), cloned human Kv1.5 potassium channel (encoded by the human KCNA5 gene and expressed in CHO cells), responsible for IKur, ultra-rapid delayed rectifier potassium current.
Chemicals used in solution preparation were purchased from Sigma-Aldrich (St. Louis, Mo.), unless otherwise noted, and were of ACS reagent grade purity or higher. Stock solutions of each test article (100 mM, 30 mM and 1.00 mM 3,4-DAP phosphate and 100 mM N-(4-aminopyridin-3-yl)acetamide) were prepared in sterile water and stored refrigerated. […]
In preparation for a recording session, intracellular solution was loaded into the intracellular compartments of the Sealchip16. […] After establishment of a whole-cell configuration, membrane currents were recorded using dual-channel patch clamp amplifiers in the PatchXpress®. […]

Data on 1 compound can be found in US11274332B2, “Methods of administering 3,4-diaminopyridine” (SERB SA, priority 2011, dated 2022).

T1 sequence (P22001 whole entry): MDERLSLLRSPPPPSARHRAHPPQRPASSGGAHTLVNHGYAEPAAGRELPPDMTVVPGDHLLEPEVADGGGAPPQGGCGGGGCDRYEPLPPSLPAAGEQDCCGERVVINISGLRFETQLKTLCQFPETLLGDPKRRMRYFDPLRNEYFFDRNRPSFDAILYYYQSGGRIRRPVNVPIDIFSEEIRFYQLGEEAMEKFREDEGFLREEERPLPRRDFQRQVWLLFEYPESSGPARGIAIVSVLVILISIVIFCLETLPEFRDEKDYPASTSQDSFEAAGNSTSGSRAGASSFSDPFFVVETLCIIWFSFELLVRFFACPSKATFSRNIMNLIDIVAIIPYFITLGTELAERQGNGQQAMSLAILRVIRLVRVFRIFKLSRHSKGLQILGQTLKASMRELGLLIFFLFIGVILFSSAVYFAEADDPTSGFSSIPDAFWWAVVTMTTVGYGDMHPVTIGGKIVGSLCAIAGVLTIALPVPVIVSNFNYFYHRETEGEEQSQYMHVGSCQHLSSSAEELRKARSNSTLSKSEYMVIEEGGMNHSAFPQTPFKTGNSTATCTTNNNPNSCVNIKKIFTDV

In the case of `CC(=O)Nc1cnccc1N` [3-N-acetyl amifampridine, N-(4-aminopyridin-3-yl)acetamide], the “activity on K+ channel” value was “inactive”. Also, the “activity on K+ channel” value (listed as N-acetyl metabolite) is given as “not active”.
